The values that follow are results of earlier work, collected in publication PMC6727202 (Molecular pharmaceutics, 2019).

The structures appear in SMILES notation.

The test system of this data set is kidney.

Consider `NCCCC[C@H](N)C(=O)O` [lysine], for which the “Reduction of kidney uptake of radiolabeled octreotide” value (lysine) is given as ~ 35%. Moreover, the “Reduction of renal uptake of radiolabeled octreotide” value (oral or intravenous administration of lysine) is recorded as “up to 40%”.
